This note sets out measurements from ChEMBL document CHEMBL5360640, “Liquiritigenin Confers Liver Protection by Enhancing NRF2 Signaling through Both Canonical and Non-canonical Signaling Pathways” (2023).

Activity calls are given as the source filed them. The calls are words filed in the database; no cut-off is given here.

Assay [1] relates to BNL CL.2. Kind of assay: Upregulation of CCDC122 mRNA expression in mouse […] cells. The class given is functional, cell-based.
In assay [2] the test system is Mus musculus. Kind of assay: Hepatoprotective activity against cisplatin induced liver injury […] mouse model assessed as reduction of […] in liver tissue at 40 mg/kg, ip administered every 24 hrs for 72 hrs. Type of assay: functional, organism-based.
In assay [3] the target is T1, Nuclear factor erythroid 2-related factor 2 (Mus musculus) (UniProt Q60795).
T1 sequence (whole entry): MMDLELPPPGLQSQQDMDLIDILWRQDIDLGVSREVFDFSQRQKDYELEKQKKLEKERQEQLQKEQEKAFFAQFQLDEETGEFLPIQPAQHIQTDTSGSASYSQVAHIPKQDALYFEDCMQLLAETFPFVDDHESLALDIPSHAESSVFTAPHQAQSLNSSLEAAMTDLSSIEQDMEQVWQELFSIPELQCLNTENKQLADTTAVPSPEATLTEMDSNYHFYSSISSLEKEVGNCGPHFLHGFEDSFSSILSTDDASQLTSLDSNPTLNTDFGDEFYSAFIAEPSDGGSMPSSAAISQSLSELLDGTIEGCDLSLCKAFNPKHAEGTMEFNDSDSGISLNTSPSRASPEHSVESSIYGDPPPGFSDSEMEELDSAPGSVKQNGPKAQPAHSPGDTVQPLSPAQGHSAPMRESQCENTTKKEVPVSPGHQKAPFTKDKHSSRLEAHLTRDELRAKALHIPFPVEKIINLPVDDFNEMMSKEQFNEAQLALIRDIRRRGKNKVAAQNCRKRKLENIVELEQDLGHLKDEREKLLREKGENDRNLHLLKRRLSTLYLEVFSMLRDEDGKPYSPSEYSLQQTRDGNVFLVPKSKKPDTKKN
The assay can be described thus: Activation of NRF2 in mouse BNL CL.2 cells assessed as increase in Akr1c1 gene level upto 40 uM incubated upto 24 hrs by rt-qPCR analysis. Conditions: filed as activator. The class given is cell-based.

In assay [4] the test system is Mus musculus. Kind of assay: Hepatoprotective activity against cisplatin induced liver injury […] mouse model assessed as rescue of hepatocellular edema at 40 mg/kg, ip administered every 24 hrs for 72 hrs. Type of assay: functional, organism-based.
The subject of assay [5] is BNL CL.2. Kind of assay: Effect of ROS generation in cisplatin induced hepatotoxicity in mouse BNL CL.2 NRF2 knockout cells assessed as increase in ROS level treated at 40 uM for 24 hrs (reference value: 93.8%). Type of assay: functional.
The subject of assay [6] is Mus musculus. The assay can be described thus: Hepatoprotective activity against cisplatin induced liver injury […] mouse model assessed as reduction of ALT in serum at 40 mg/kg, ip administered every 24 hrs for 72 hrs. The class given is functional, organism-based.
In assay [7] the test system is Mus musculus. The assay can be described thus: Hepatoprotective activity against cisplatin induced liver injury […] mouse model assessed as no change in liver to body weight ratio at 40 mg/kg, ip administered every 24 hrs for 72 hrs. Type of assay: functional, organism-based.
The test system of assay [8] is BNL CL.2. Kind of assay: Effect of ROS generation in cisplatin induced hepatotoxicity in mouse BNL CL.2 NRF2 cells assessed as increase in ROS level treated at 40 uM for 24 hrs. The class given is functional, cell-based.
In assay [9] the test system is BNL CL.2. Kind of assay: Effect of ROS generation in cisplatin induced hepatotoxicity in mouse BNL CL.2 NRF2 knockout cells assessed as increase in ROS level treated at 40 uM for 24 hrs. Type of assay: functional, cell-based.
The target of assay [10] is T2, Nuclear factor erythroid 2-related factor 2 (Homo sapiens) (UniProt Q16236).
T2 sequence (whole entry): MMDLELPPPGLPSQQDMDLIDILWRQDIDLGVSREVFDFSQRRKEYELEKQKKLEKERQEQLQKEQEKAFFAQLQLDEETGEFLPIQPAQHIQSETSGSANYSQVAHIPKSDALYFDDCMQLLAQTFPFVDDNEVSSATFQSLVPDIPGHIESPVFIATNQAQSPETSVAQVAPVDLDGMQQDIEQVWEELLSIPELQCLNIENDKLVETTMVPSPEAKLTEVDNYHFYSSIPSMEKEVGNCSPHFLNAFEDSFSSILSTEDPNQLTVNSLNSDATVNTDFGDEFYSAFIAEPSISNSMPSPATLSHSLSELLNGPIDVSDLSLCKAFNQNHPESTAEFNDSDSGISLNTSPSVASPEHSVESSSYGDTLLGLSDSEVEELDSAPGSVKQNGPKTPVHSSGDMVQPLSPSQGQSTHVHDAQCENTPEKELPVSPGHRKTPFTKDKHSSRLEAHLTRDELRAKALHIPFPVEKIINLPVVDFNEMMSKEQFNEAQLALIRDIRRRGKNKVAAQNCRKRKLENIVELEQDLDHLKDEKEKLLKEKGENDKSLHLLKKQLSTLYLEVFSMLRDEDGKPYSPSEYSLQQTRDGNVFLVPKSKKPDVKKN
The assay can be described thus: Activation of NRF2 in human HepG2 cells treated for 8 to 24 hrs by immunoblot analysis. Conditions: filed as activator, dose 10-40 µM, time 8-24 hrs. The class given is cell-based. A general note: A western blot detects proteins with antibodies after separation by electrophoresis.

Assay [11] concerns BNL CL.2. Kind of assay: Effect of ROS generation in mouse BNL CL.2 cells assessed as increase in ROS level treated at 40 uM for 24 hrs (reference value: 8.04%). Type of assay: functional.
For assay [12], the system named is BNL CL.2. Kind of assay: Upregulation of NOTUM mRNA expression in mouse […] cells. The class given is functional, cell-based.
For assay [13], the system named is BNL CL.2. The assay can be described thus: Inhibition of autophagy in mouse BNL CL.2 cells assessed as suppression of autophagosome formation by measuring reduction in red puncta incubated upto 80 uM for 24 hrs by immuno fluoroscence analysis. The class given is functional, cell-based.
Assay [14] deals with T1, Nuclear factor erythroid 2-related factor 2 (Mus musculus). The assay can be described thus: Activation of NRF2 in mouse BNL CL.2 cells assessed as increase in Gclm gene level upto 40 uM incubated upto 24 hrs by rt-qPCR analysis. The class given is cell-based. The following applies: filed as activator.
Assay [15] has as its system BNL CL.2. The assay can be described thus: Inhibition of autophagy in mouse BNL CL.2 cells assessed as suppression of autolysosome formation by measuring reduction in red puncta incubated upto 80 uM for 24 hrs by immuno fluoroscence analysis. Type of assay: functional, cell-based.
Assay [16] addresses T1, Nuclear factor erythroid 2-related factor 2 (Mus musculus). Kind of assay: Binding affinity to Flag-tagged NRF2 in mouse BNL CL.2 cells assessed as increase in protein half life treated upto 45 mins with compound. The class given is cell-based. Conditions: filed as activator.
The target is the same in assay [17]. The assay can be described thus: Activation of flag-tagged NRF2 in mouse BNL CL.2 cells in presence of wildtype His-tagged KEAP1 at 40 uM for 24 hrs followed by treatment with MG132 for 4 hrs by immunoblot assay. The class given is cell-based. The following applies: filed as activator.
In assay [18] the test system is BNL CL.2. The assay can be described thus: Effect on KEAP1 level in mouse BNL CL.2 NRF2 knockout cells assessed as no change treated at 40 uM for 24 hrs by immunoblot analysis. The class given is functional, cell-based.
For assay [19], the system named is BNL CL.2. The assay can be described thus: Upregulation of OAS1 mRNA expression in mouse […] cells. Type of assay: functional, cell-based.
Assay [20] has as its system BNL CL.2. The assay can be described thus: Inhibition of autophagy in mouse BNL CL.2 cells assessed as suppression of autophagosome formation by measuring reduction in yellow puncta incubated upto 80 uM for 24 hrs by immuno fluoroscence analysis. Type of assay: functional, cell-based.
In assay [21] the test system is BNL CL.2. Kind of assay: Inhibition of autophagy in mouse BNL CL.2 cells assessed as suppression of autolysosome formation by measuring reduction in yellow puncta incubated upto 80 uM for 24 hrs by immuno fluoroscence analysis. The class given is functional, cell-based.
In assay [22] the test system is Mus musculus. Kind of assay: Hepatoprotective activity against cisplatin induced liver injury […] mouse model assessed as rescue of disorder arrangement of hepatic cord at 40 mg/kg, ip administered every 24 hrs for 72 hrs. Type of assay: functional, organism-based.
The test system of assay [23] is BNL CL.2. Kind of assay: Effect of ROS generation in cisplatin induced hepatotoxicity in mouse BNL CL.2 cells assessed as increase in ROS level treated at 40 uM for 24 hrs (reference value: 83%). The class given is functional.
The subject of assay [24] is BNL CL.2. The assay can be described thus: Effect of ROS generation in mouse BNL CL.2 cells incubated at 40 uM for 24 hrs (reference value: 9.42%). The class given is functional.

In the case of `O=C1C[C@@H](c2ccc(O)cc2)Oc2cc(O)ccc21` [LIQUIRTIGENIN], the result (with BNL CL.2 [1]; with Mus musculus [2]; in assay [3]; in the assay on Mus musculus [4]; with Mus musculus [6]; with Mus musculus [7]) was Active. Moreover, the outcome (with BNL CL.2 [8]; in the assay on BNL CL.2 [9]; in the assay with BNL CL.2 [12]; in assay [14]; in [16]; in [17]) was Active. Further, the outcome in the assay with BNL CL.2 [18], in the assay on BNL CL.2 [19] and in the assay with Mus musculus [22] was Active. Also, the Activity in the assay with BNL CL.2 [5] was 91.9%; in assay [10], “Dose-Dependent Effect”; with BNL CL.2 [11], 2.26%; in the assay on BNL CL.2 [23], 76%; in the assay with BNL CL.2 [24], 4.52%. The inhibition entry in the assay on BNL CL.2 [13], in the assay on BNL CL.2 [15], in the assay with BNL CL.2 [20] and in the assay with BNL CL.2 [21] was “Active” in each case.
